Measured values from patent publication US6900315B2, “2-amino-9H-purin-9-yl compounds and methods for inhibiting/treating HIV infections and AIDS related symptoms” (Yale University, priority 2001, dated 2005).
Read-outs that look alike come from different tables or passages of the source. One block for each compound: values may come before it.

Key:
[1] = target: T1, wild type HIV-1 reverse transcriptase (Human immunodeficiency virus type 1 group M subtype B, UniProt P04585); parameters: kpol/Kd: unit not given here; details: from Ray and Anderson or Furman et al., cited from earlier work
T1 construct: a mixture of 100 nM HIV-1 reverse transcriptase and 300 nM primer/template

[2] = target: T1, wild type HIV-1 reverse transcriptase; assay: Kinetics of nucleotide incorporation by wild type HIV-1 reverse transcriptase; type: biochemical; details: RT WT
Experimental: Continued research on the guanosine prodrug approach for making D4G a viable anti-HIV agent has yielded a number of new findings. In the present example, enzyme kinetics for the incorporation of the active metabolites of guanosine prodrugs with wild type HIV-1 reverse transcriptase was determined. In this experiment, a mixture of 100 nM HIV-1 reverse transcriptase and 300 nM primer/template in which the correct base incorporation is a guanine nucleotide was rapidly mixed with nucleotide in the presence of 50 mM Tris, 50 mM NaCl and 10 mM MgCl2 for a set amount of time and then the reaction was stopped by the addition 300 mM of EDTA.

[3] = system: HeLa; assay: Toxicity, dye based cell growth assay, HeLa
Experimental: (§1) To determine the toxicity of the compounds to various cell lines (Table 1, below), a similar dye based assay is performed in the absence of HIV. The toxicity of the compounds alone therefore was determined.

[4] = system: HEP-G2; assay: Toxicity, dye based cell growth assay, HEP-G2; details: read-out: IC50 (inhibited 50% of the cell growth)
Experimental: as §1

[5] = system: HIV IIIB; assay: Anti-HIV activity in MT-2 cells infected with HIV IIIB, MTT dye cell viability; type: cell-based; details: read-out: EC50 (concentration necessary to save 50% of the cells)
Experimental: To assess the ability of the compounds according to the present invention to inhibit viral infection relative to other compounds experiments were performed in the MT-2 cell line, as previously described by Larder, et al., Antimicrobial Agents & Chemotherapy, vol. 34, 436 (1990). […] Cells were infected at an initial multiplicity of infection (MOI) of 0.1 and grown for 5 days. Cell viability was assessed by the use of dye metabolized by viable cells.

[6] = system: KB; assay: Toxicity, dye based cell growth assay, KB
Experimental: as §1

[7] = system: MT-2; assay: Toxicity, dye based cell growth assay in absence of HIV, MT-2; details: read-out: IC50 (inhibited 50% of the cell growth)
Experimental: as §1

[8] = system: CEM; assay: Toxicity, dye based cell growth assay, CEM; details: read-out: IC50 (inhibited 50% of the cell growth)
Experimental: as §1

[9] = target: T2, mitochondrial polymerase gamma (Homo sapiens, UniProt P54098); assay: Nucleotide incorporation by mitochondrial polymerase gamma into an elongating DNA strand; type: biochemical; details: mitochondrial polymerase gamma, incorporation
T2 sequence (P54098 1-1239): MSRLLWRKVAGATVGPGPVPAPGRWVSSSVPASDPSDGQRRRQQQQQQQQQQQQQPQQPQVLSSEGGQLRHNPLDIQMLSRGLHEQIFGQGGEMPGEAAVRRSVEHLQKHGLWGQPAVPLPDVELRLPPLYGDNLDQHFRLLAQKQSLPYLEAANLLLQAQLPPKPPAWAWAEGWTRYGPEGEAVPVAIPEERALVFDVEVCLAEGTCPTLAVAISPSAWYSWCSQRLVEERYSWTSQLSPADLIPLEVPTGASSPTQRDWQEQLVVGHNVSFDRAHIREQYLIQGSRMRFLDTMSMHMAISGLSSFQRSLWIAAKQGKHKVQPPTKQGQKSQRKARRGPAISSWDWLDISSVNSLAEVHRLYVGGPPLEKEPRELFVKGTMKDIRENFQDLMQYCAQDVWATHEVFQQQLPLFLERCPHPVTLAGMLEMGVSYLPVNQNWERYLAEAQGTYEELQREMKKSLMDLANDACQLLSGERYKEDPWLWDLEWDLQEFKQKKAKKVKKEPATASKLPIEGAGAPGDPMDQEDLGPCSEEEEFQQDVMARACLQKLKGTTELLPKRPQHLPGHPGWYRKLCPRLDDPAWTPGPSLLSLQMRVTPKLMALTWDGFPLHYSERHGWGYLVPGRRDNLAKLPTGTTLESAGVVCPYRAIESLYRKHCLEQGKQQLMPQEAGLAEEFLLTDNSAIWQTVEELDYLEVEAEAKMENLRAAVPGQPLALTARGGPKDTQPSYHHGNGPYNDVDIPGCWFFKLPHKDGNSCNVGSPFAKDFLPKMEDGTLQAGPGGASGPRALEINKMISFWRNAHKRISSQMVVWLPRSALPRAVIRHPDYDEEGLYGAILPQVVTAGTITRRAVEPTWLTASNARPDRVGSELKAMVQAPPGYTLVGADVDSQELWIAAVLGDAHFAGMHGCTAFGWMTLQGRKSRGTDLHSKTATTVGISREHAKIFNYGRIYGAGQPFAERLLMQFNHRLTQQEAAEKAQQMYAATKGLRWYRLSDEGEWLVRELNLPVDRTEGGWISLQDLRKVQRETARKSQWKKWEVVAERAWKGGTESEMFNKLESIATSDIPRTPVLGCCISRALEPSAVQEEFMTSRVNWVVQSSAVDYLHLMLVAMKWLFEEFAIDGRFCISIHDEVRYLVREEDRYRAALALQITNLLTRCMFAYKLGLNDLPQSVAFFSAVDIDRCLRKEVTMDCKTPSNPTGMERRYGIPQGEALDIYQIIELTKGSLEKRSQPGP

[10] = system: mitochondrial DNA in CEM cells; assay: Mitochondrial toxicity: ratio of mitochondrial DNA to Alu repeat in CEM cells; type: cell-based; details: 8 days
Source text: After 8 days of growth the cells were lysed and probed for the amount of mitochondrial DNA and normalized for differences in the amount of total DNA by probing for the Alu repeat. By comparing the amount of mitochondrial DNA to the amount of Alu repeat the % decrease in mitochondrial DNA in the presence of various concentrations of drug can be obtained. All experiments were done in triplicate. Techniques which are presented here have been previously described in Chen and Cheng, J. Biol. Chem., vol. 264, 11934-7 (1989).

[11] = system: HIV; details: pairs: D4T and AZT, 3TC and ddC, FD4C and 3TC, abacavir and cyclo D4G; Bridges et al., Dutschman et al.; cited from earlier work
[12] = system: HIV; assay: Anti-HIV drug combination (synergy, isobologram of FEC50) in cell culture; type: cell-based
Experimental: Points on this line represent the compounds working independently.
In an attempt to understand how D4G prodrugs of the present invention would interact with other clinically approved compounds, experiments were performed with drug combinations. […] Points on the line represent two compounds working independently. […] See, Bridges, et al., Biochem. Pharmacol., 51, 731 (1996) and Dutschman, et al., Antimicro. Agents Chemother. 42, 1799 (1998).

[13] = Table 4, primer/template DNA/DNA
[14] = Table 4, primer/template DNA/RNA
[15] = Homo sapiens, 120 h, read-out: IC50 (inhibited 50% of the cell growth), cervical cancer cell line, 5 days
[16] = Homo sapiens, HepG2, 120 h, HEP-G2, hepatoma cell line, 5 days
[17] = Human immunodeficiency virus 1, MT2, 120 h, MT-2 cells, HIV IIIB, MOI 0.1, 5 days, MTT, NA = No Activity at concentrations up to 100 uM, EC50 not achievable due to toxicity
[18] = Homo sapiens, 120 h, read-out: IC50 (inhibited 50% of the cell growth), oral carcinoma, 5 days
[19] = Homo sapiens, MT2, 120 h, MT-2, HTLV infected T cell line, 5 days
[20] = Homo sapiens, CCRF-CEM, 120 h, CEM, T cell line, 5 days
[21] = Homo sapiens, 120 h, read-out: IC50 (inhibited 50% of the cell growth)
[22] = Human immunodeficiency virus 1, IIIB, MT2, 120 h

SMILES: Nc1nc2c(ncn2C2C=CC(COP(=O)(O)OP(=O)(O)OP(=O)(O)O)C2)c(=O)[nH]1 (single isomer, unassigned; (-)) [CBVTP, (−) carbovir-TP]
Selectivity = (kpol/Kd)dGTP/(kpol/Kd)analog ([1]; Table 3, substrate DNA/DNA): 30
kpol ([1]; Table 3, substrate DNA/DNA): 1.0 ± 0.06 s⁻¹
kpol/Kd ([1]; Table 3, substrate DNA/DNA): 0.05 ± 0.01
Selectivity = (kpol/Kd)dGTP/(kpol/Kd)analog ([1]; Table 3, substrate DNA/RNA): 10
kpol ([1]; Table 3, substrate DNA/RNA): 1.5 ± 0.05 s⁻¹
kpol/Kd ([1]; Table 3, substrate DNA/RNA): 0.42 ± 0.06
Efficiency [2, 13]: 0.05 ± 0.01 s^−1μM^−1
Kd [2, 13]: 21 ± 3 µM
Selectivity = efficiency dGTP/efficiency analog [2, 13]: 30
kpol [2, 13]: 1.0 ± 0.06 s⁻¹
Efficiency [2, 14]: 0.42 ± 0.06 s^−1μM^−1
Kd [2, 14]: 3.7 ± 0.5 µM
Selectivity = efficiency dGTP/efficiency analog [2, 14]: 10
kpol [2, 14]: 1.5 ± 0.05 s⁻¹

SMILES: Nc1nc(N)c2ncn([C@H]3CO[C@@H](CO)O3)c2n1 [DAPD]
IC50 ([3]; read-out: IC50 (inhibited 50% of the cell growth), cervical cancer cell line, 5 days): 500 ± 33 µM
IC50 ([4]; HEP-G2, hepatoma cell line, 5 days): 500 ± 33 µM
EC50 ([5]; MT-2 cells, HIV IIIB, MOI 0.1, 5 days, MTT, NA = No Activity at concentrations up to 100 uM, EC50 not achievable due to toxicity): 15000 ± 4000 nM
IC50 ([6]; read-out: IC50 (inhibited 50% of the cell growth), oral carcinoma, 5 days): > 500 µM
IC50 ([7]; MT-2, HTLV infected T cell line, 5 days): > 100 µM
IC50 ([8]; CEM, T cell line, 5 days): > 500 µM

Kd [9]: 600 ± 160 nM
kpol [9]: 25 ± 2 s⁻¹
kpol/Kd [9]: 39 ± 13 µM⁻¹ s⁻¹
SMILES: Cc1cn([C@H]2C[C@H](O)[C@@H](COP(=O)(O)OP(=O)(O)OP(=O)(O)O)O2)c(=O)[nH]c1=O [dTTP]

SMILES: Nc1ccn([C@H]2CC[C@@H](CO)O2)c(=O)n1 [DdC, 2′,3′ dideoxycytodine]
IC50 [3, 15]: > 100 µM
IC50 [4, 16]: 25 ± 2 µM
EC50 [5, 17]: 300 ± 50 nM
IC50 [6, 18]: 100 ± 11 µM
IC50 [7, 19]: 2 ± 0.3 µM
% Control (mtDNA/Alu) ([10]; human, 0.01 μM): 87%
Ration of mtDNA/Alu ([10]; human, 0.01 μM): 0.93 ± 0.06
% Control (mtDNA/Alu) ([10]; human, 0.1 μM): 65%
Ration of mtDNA/Alu ([10]; human, 0.1 μM): 0.70 ± 0.04
% Control (mtDNA/Alu) ([10]; human, 1 μM): 3%
Ration of mtDNA/Alu ([10]; human, 1 μM): 0.03 ± 0.01
IC50 [8, 20]: 3 ± 1 µM

SMILES: OC[C@@H]1CC[C@H](n2cnc3c(O)ncnc32)O1 [DdI, 2′,3′ dideoxyinosine]
IC50 [3, 15]: 500 ± 33 µM
IC50 [4, 16]: > 500 µM
EC50 [5, 17]: 20000 ± 6000 nM
IC50 [6, 18]: > 500 µM
IC50 [7, 19]: > 100 µM
IC50 [8, 20]: > 500 µM

SMILES: Nc1nc(=O)n([C@@H]2C=C[C@H](CO)O2)cc1F [FD4C]
anti-HIV interaction of two analogs of the same base [11]: not synergistic

SMILES: Cc1cn([C@H]2C=C[C@@H](CO)O2)c(=O)[nH]c1=O [d4T, 2′,3′-didehydro-2′,3′-dideoxythymidine]
IC50 [3, 21]: 480 ± 31 µM
IC50 ([4]; Homo sapiens, HepG2, 120 h): 390 ± 26 µM
anti-HIV interaction of two analogs of the same base [11]: not synergistic
EC50 [5, 22]: 3000 ± 700 nM
IC50 [6, 21]: 450 ± 47 µM
anti-HIV interaction in combination with AZT ([12]; FIG. 4, D4T with AZT data not shown): only additive
IC50 ([7]; Homo sapiens, MT2, 120 h): > 100 µM
% Control (mtDNA/Alu) ([10]; compound 1 μM, CEM cells): 110%
Ration of mtDNA/Alu ([10]; compound 1 μM, CEM cells): 1.18 ± 0.03
% Control (mtDNA/Alu) ([10]; compound 10 μM, CEM cells): 94%
Ration of mtDNA/Alu ([10]; compound 10 μM, CEM cells): 1.00 ± 0.02
% Control (mtDNA/Alu) ([10]; compound 200 μM, CEM cells): 21%
Ration of mtDNA/Alu ([10]; compound 200 μM, CEM cells): 0.22 ± 0.03
IC50 ([8]; Homo sapiens, CCRF-CEM, 120 h): 190 ± 30 µM

SMILES: Nc1nc(NC2CC2)c2ncn([C@H]3C=C[C@@H](CO)C3)c2n1 [Abacavir]
IC50 [3, 15]: 500 ± 33 µM
IC50 [4, 16]: 180 ± 12 µM
anti-HIV interaction of two analogs of the same base [11]: not synergistic
EC50 [5, 22]: 2000 ± 400 nM
IC50 [6, 18]: 200 ± 21 µM
anti-HIV interaction in combination with 3TC ([12]; FIG. 3 and FIG. 4): merely additive
IC50 [7, 19]: 60 ± 13 µM
% Control (mtDNA/Alu) ([10]; human, 1 μM): 110%
Ration of mtDNA/Alu ([10]; human, 1 μM): 1.18 ± 0.03
% Control (mtDNA/Alu) ([10]; human, 10 μM): 119%
Ration of mtDNA/Alu ([10]; human, 10 μM): 1.27 ± 0.06
% Control (mtDNA/Alu) ([10]; human, 200 μM): 127%
Ration of mtDNA/Alu ([10]; human, 200 μM): 1.36 ± 0.06
IC50 [8, 20]: 200 ± 50 µM

SMILES: Nc1nc2c(ncn2[C@H]2CO[C@@H](COP(=O)(O)OP(=O)(O)OP(=O)(O)O)O2)c(=O)[nH]1 [DXGTP]
Kd ([1]; Table 3, substrate DNA/DNA): 2.5 ± 0.2 µM
Selectivity = (kpol/Kd)dGTP/(kpol/Kd)analog ([1]; Table 3, substrate DNA/DNA): 3
kpol ([1]; Table 3, substrate DNA/DNA): 1.46 ± 0.03 s⁻¹
kpol/Kd ([1]; Table 3, substrate DNA/DNA): 0.58 ± 0.05
Kd ([1]; Table 3, substrate DNA/RNA): 8.8 ± 1.1 µM
Selectivity = (kpol/Kd)dGTP/(kpol/Kd)analog ([1]; Table 3, substrate DNA/RNA): 20
kpol ([1]; Table 3, substrate DNA/RNA): 1.5 ± 0.1 s⁻¹
kpol/Kd ([1]; Table 3, substrate DNA/RNA): 0.17 ± 0.02
